From ChEMBL document CHEMBL1201862, “PubChem BioAssay data set” (2004)
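Assay format: 96-well plates, 48-hour exposure. Here, GI50 denotes the concentration required for 50% inhibition of growth.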 Active and inactive are the calls of the source. Cut-off read from the data, not from the text of the source: active = GI50 up to about 1.1 µM and inactive = higher.

Legend:
Assay in all cases: DTP human tumour cell line panel, 48 h
SW-620 = tested on: SW-620
U-251 = tested on: U-251
SK-MEL-5 = tested on: SK-MEL-5
LOX IMVI = tested on: LOX IMVI
CAKI-1 = tested on: CAKI-1
Malme-3M = tested on: Malme-3M
A549 = tested on: A549
OVCAR-5 = tested on: OVCAR-5
SF-539 = tested on: SF-539
BT-549 = tested on: BT-549
SNB-19 = tested on: SNB-19
MOLT-4 = tested on: MOLT-4
Hs-578T = tested on: Hs-578T
MDA-MB-231 = tested on: MDA-MB-231
NCI-H522 = tested on: NCI-H522
UO-31 = tested on: UO-31
SN12C = tested on: SN12C
T47D = tested on: T47D
SK-MEL-28 = tested on: SK-MEL-28
DLD-1 = tested on: DLD-1

COc1ccc(NC(=S)Nc2cc(C)cc(C)n2)cc1 was tested, and the GI50 (SW-620) was > 100 µM (inactive), the GI50 (U-251) was > 100 µM (inactive) and the GI50 (SK-MEL-5) was > 100 µM (inactive). The GI50 (LOX IMVI) was > 100 µM (inactive), the GI50 (CAKI-1) was > 100 µM (inactive) and the GI50 (Malme-3M) was > 100 µM (inactive). For the same molecule, the GI50 (A549) was > 100 µM (inactive), the GI50 (OVCAR-5) was > 100 µM (inactive) and the GI50 (SF-539) was > 100 µM (inactive). The GI50 (BT-549) was > 100 µM (inactive), the GI50 (SNB-19) was > 100 µM (inactive) and the GI50 (MOLT-4) was > 100 µM (inactive). The GI50 (Hs-578T) was > 100 µM (inactive), the GI50 (MDA-MB-231) was > 100 µM (inactive) and the GI50 (NCI-H522) was > 100 µM (inactive). For the same molecule, the GI50 (UO-31) was > 100 µM (inactive), the GI50 (SN12C) was > 100 µM (inactive) and the GI50 (T47D) was > 100 µM (inactive). The GI50 (SK-MEL-28) was > 100 µM (inactive).
In the case of CN(C)CCNC(=O)c1cccc2ccc(-c3cccnc3)nc12, the GI50 (SW-620) is reported as 3.76 µM (inactive), the GI50 (U-251) is reported as 4.36 µM (inactive) and the GI50 (SK-MEL-5) is reported as 3.72 µM (inactive). For the same molecule, the GI50 (LOX IMVI) was 3.8 µM (inactive), the GI50 (CAKI-1) was 3.88 µM (inactive) and the GI50 (Malme-3M) was 5.41 µM (inactive). The GI50 (A549) was 3.7 µM (inactive), the GI50 (OVCAR-5) was 3.87 µM (inactive) and the GI50 (SF-539) was 11.4 µM (inactive). The GI50 (DLD-1) was 4.41 µM (inactive), the GI50 (SNB-19) was 4.14 µM (inactive) and the GI50 (MOLT-4) was 2.74 µM (inactive). The GI50 (UO-31) was 1.98 µM (inactive), the GI50 (SN12C) was 3.61 µM (inactive) and the GI50 (SK-MEL-28) was 11.6 µM (inactive).
O=C(O)CCSC(=S)Nc1cccc(F)c1 was tested, and the GI50 (SW-620) was > 100 µM (inactive), the GI50 (U-251) was 47.3 µM (inactive) and the GI50 (SK-MEL-5) was 20 µM (inactive). The GI50 (LOX IMVI) was 13.9 µM (inactive), the GI50 (CAKI-1) was 77.3 µM (inactive) and the GI50 (Malme-3M) was 48.6 µM (inactive). For the same molecule, the GI50 (A549) was 77.4 µM (inactive), the GI50 (OVCAR-5) was > 100 µM (inactive) and the GI50 (SF-539) was 26.1 µM (inactive). The GI50 (DLD-1) was 50.7 µM (inactive), the GI50 (SNB-19) was 45.2 µM (inactive) and the GI50 (MOLT-4) was 30 µM (inactive). For the same molecule, the GI50 (UO-31) was > 100 µM (inactive), the GI50 (SN12C) was 60.8 µM (inactive) and the GI50 (SK-MEL-28) was 28 µM (inactive).
For CC(C)CC(=O)OC[n+]1ccc(-c2c(COC(=O)NC(C)C)c(COC(=O)NC(C)C)c3n2CCC3)cc1, the GI50 (SW-620) was > 100 µM (inactive), the GI50 (U-251) was > 100 µM (inactive) and the GI50 (SK-MEL-5) was > 100 µM (inactive). For the same molecule, the GI50 (LOX IMVI) was > 100 µM (inactive), the GI50 (CAKI-1) was 45.2 µM (inactive) and the GI50 (Malme-3M) was > 100 µM (inactive). The GI50 (A549) was > 100 µM (inactive), the GI50 (OVCAR-5) was > 100 µM (inactive) and the GI50 (SF-539) was 27.6 µM (inactive). For the same molecule, the GI50 (BT-549) was > 100 µM (inactive), the GI50 (SNB-19) was > 100 µM (inactive) and the GI50 (MOLT-4) was 32.3 µM (inactive). For the same molecule, the GI50 (Hs-578T) was > 100 µM (inactive), the GI50 (MDA-MB-231) was > 100 µM (inactive) and the GI50 (NCI-H522) was > 100 µM (inactive). For the same molecule, the GI50 (UO-31) was > 100 µM (inactive), the GI50 (SN12C) was > 100 µM (inactive) and the GI50 (T47D) was > 100 µM (inactive). The GI50 (SK-MEL-28) was > 100 µM (inactive).
For CC1CC2CCCC(=O)C2=C(O)O1 (stereo not given), the GI50 (SW-620) was > 100 µM (inactive), the GI50 (U-251) was > 100 µM (inactive) and the GI50 (SK-MEL-5) was > 100 µM (inactive). The GI50 (LOX IMVI) was > 100 µM (inactive), the GI50 (CAKI-1) was > 100 µM (inactive) and the GI50 (Malme-3M) was > 100 µM (inactive). For the same molecule, the GI50 (A549) was > 100 µM (inactive), the GI50 (OVCAR-5) was > 100 µM (inactive) and the GI50 (SF-539) was > 100 µM (inactive). The GI50 (BT-549) was 81.5 µM (inactive), the GI50 (SNB-19) was 31.6 µM (inactive) and the GI50 (MOLT-4) was > 100 µM (inactive). For the same molecule, the GI50 (Hs-578T) was > 100 µM (inactive), the GI50 (MDA-MB-231) was > 100 µM (inactive) and the GI50 (NCI-H522) was > 100 µM (inactive). The GI50 (UO-31) was > 100 µM (inactive), the GI50 (SN12C) was > 100 µM (inactive) and the GI50 (T47D) was > 100 µM (inactive). The GI50 (SK-MEL-28) was > 100 µM (inactive).
COc1c(OC)c(O)c2c(=O)c(OC)c(-c3ccc4c(c3)OCO4)oc2c1O was tested, and the GI50 (SW-620) was > 100 µM (inactive), the GI50 (U-251) was > 100 µM (inactive) and the GI50 (SK-MEL-5) was 38.2 µM (inactive). For the same molecule, the GI50 (LOX IMVI) was > 100 µM (inactive), the GI50 (CAKI-1) was > 100 µM (inactive) and the GI50 (Malme-3M) was > 100 µM (inactive). For the same molecule, the GI50 (A549) was > 100 µM (inactive), the GI50 (OVCAR-5) was > 100 µM (inactive) and the GI50 (SF-539) was > 100 µM (inactive). The GI50 (BT-549) was > 100 µM (inactive), the GI50 (SNB-19) was > 100 µM (inactive) and the GI50 (MOLT-4) was 40.1 µM (inactive). For the same molecule, the GI50 (Hs-578T) was > 100 µM (inactive), the GI50 (MDA-MB-231) was > 100 µM (inactive) and the GI50 (NCI-H522) was > 100 µM (inactive). The GI50 (UO-31) was > 100 µM (inactive), the GI50 (SN12C) was > 100 µM (inactive) and the GI50 (T47D) was 24.5 µM (inactive). For the same molecule, the GI50 (SK-MEL-28) was > 100 µM (inactive).
With Cc1cccc(O)c1-c1nnc(CCCCCCCCc2nnc(-c3c(C)cccc3O)n2N)n1N the GI50 (SW-620) was > 100 µM (inactive), the GI50 (U-251) was 23.2 µM (inactive) and the GI50 (SK-MEL-5) was > 100 µM (inactive). The GI50 (LOX IMVI) was 45.2 µM (inactive), the GI50 (CAKI-1) was > 100 µM (inactive) and the GI50 (Malme-3M) was > 85.3 µM (inactive). For the same molecule, the GI50 (A549) was > 46.5 µM (inactive), the GI50 (OVCAR-5) was > 100 µM (inactive) and the GI50 (SF-539) was > 96.4 µM (inactive). For the same molecule, the GI50 (BT-549) was 15 µM (inactive), the GI50 (SNB-19) was 41.2 µM (inactive) and the GI50 (MOLT-4) was 8.41 µM (inactive). The GI50 (Hs-578T) was 39.9 µM (inactive), the GI50 (MDA-MB-231) was > 62.2 µM (inactive) and the GI50 (NCI-H522) was 1.07 µM (active). For the same molecule, the GI50 (UO-31) was 68.5 µM (inactive), the GI50 (SN12C) was > 100 µM (inactive) and the GI50 (T47D) was > 100 µM (inactive). For the same molecule, the GI50 (SK-MEL-28) was > 50.2 µM (inactive).
In the case of Cn1c(=O)c(NC(=O)C(Cl)(Cl)Cl)nc2ccccc21, the GI50 (SW-620) is reported as > 100 µM (inactive), the GI50 (U-251) is reported as > 100 µM (inactive) and the GI50 (SK-MEL-5) is reported as > 100 µM (inactive). The GI50 (LOX IMVI) was > 100 µM (inactive), the GI50 (CAKI-1) was > 100 µM (inactive) and the GI50 (Malme-3M) was > 100 µM (inactive). For the same molecule, the GI50 (A549) was > 100 µM (inactive), the GI50 (SF-539) was > 100 µM (inactive) and the GI50 (DLD-1) was > 100 µM (inactive). For the same molecule, the GI50 (SNB-19) was > 100 µM (inactive), the GI50 (MOLT-4) was > 100 µM (inactive) and the GI50 (NCI-H522) was > 100 µM (inactive). The GI50 (UO-31) was > 100 µM (inactive), the GI50 (SN12C) was > 100 µM (inactive) and the GI50 (SK-MEL-28) was > 100 µM (inactive).
